Assay results from PMC7932080, “In vitro study of Hesperetin and Hesperidin as inhibitors of zika and chikungunya virus proteases” (PLoS ONE, 2021).
Several values for one entry are separate records, joined by “and”; a condition that tells them apart may be missing. Equal entries are not always repeated. Where two headings read alike, the source gives them in different places.

Assays:
trypsin = test system: trypsin; parameters: method as in PMID 23124490; settings: cited from earlier work
Vero cells = assay: Cell viability through MTT assay
ZIKV NS2B/NS3^pro [1] = target: T1, ZIKV NS2B/NS3^pro (Zika virus, UniProt A0A024B7W1); assay: Intrinsic Trp fluorescence titration (KD); settings: Trp fluorescence quenching, ± STD
T1 sequence (A0A024B7W1 1425-1464): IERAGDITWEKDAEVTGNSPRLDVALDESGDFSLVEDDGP
T1 sequence (A0A024B7W1 1503-1680): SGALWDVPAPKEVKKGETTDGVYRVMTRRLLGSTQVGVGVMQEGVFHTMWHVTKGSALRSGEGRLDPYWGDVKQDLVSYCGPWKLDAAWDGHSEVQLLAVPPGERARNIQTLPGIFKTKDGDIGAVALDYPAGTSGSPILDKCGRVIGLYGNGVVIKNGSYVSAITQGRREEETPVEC

ZIKV = assay: Plaque reduction antiviral assay in Vero cells; settings: ~50 PFU, two inhibitor concentrations
CHIKV nsP2^pro [2] = target: T2, CHIKV nsP2^pro (Chikungunya virus, UniProt Q8JUX6); assay: CHIKV nsP2^pro FRET-based inhibition assay; type: biochemical; settings: for % activity, mean / % inhibition, mean: mean n=3
T2 sequence (Q8JUX6 1001-1333): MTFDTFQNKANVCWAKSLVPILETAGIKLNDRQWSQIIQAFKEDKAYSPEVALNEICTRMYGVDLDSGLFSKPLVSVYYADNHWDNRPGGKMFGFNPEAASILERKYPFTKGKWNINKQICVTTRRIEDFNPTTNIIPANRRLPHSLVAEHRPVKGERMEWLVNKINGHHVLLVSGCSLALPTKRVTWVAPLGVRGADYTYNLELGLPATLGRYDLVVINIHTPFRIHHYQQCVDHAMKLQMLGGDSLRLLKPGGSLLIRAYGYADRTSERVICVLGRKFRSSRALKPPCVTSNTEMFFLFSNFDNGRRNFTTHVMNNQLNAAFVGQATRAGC

[3] = dose of administration 20 mg/kg, cited from earlier work
CHIKV [4] = settings: cited from earlier work
CHIKV [5] = assay: Plaque reduction antiviral assay in Vero cells; settings: ~50 PFU, two inhibitor concentrations
[6] = cited from earlier work
CHIKV nsP2^pro [7] = target: T2, CHIKV nsP2^pro; assay: Intrinsic Trp fluorescence titration (KD); settings: Trp fluorescence quenching, ± STD
CHIKV nsP2^pro [8] = target: T2, CHIKV nsP2^pro; assay: Thermal unfolding by fluorescence spectroscopy; settings: 10 µM protease, 75 µM ligand
ZIKV NS2B/NS3^pro [9] = target: T1, ZIKV NS2B/NS3^pro; assay: Thermal unfolding by fluorescence spectroscopy; settings: 10 µM protease, 75 µM ligand

For `COc1ccc(C2CC(=O)c3c(O)cc(O)cc3O2)cc1O` (stereo not shown) [HST, 3’,5,7-trihydroxy-4’-methoxyflavanone], the IC50 (trypsin) is given as 104000 nM, the “Cytotoxic effect at the calculated IC50 concentrations” value (Vero cells; 2.3 to 300 µM, 2 days) is given as “no cytotoxic effect” and the 50% cytotoxic concentration (Vero cells; 48 h, concentrations up to 300 µM) is given as > 300 µM. The Kd (ZIKV NS2B/NS3^pro [1]) was 17800 ± 2900 nM, the “Antiviral activity, plaque reduction” value (ZIKV) was “no antiviral activities” and the “LE (ligand efficiency)” value (CHIKV nsP2^pro [2]; (1.4*pIC50)/N) was 0.36. For the same molecule, the inhibition at 1 µM (CHIKV nsP2^pro [2]; HST 1 µM, replicates A-C) was 31%, the inhibition at 5 µM (CHIKV nsP2^pro [2]; HST 5 µM, replicates A-C) was 67% and the inhibition at 10 µM (CHIKV nsP2^pro [2]; HST 10 µM, replicates A-C) was 78%. The inhibition at 20 µM (CHIKV nsP2^pro [2]; HST 20 µM, replicates A-C) was 93%, the inhibition at 30 µM (CHIKV nsP2^pro [2]; HST 30 µM, replicates A-C) was 100% and the “% activity, mean” value (CHIKV nsP2^pro [2]; HST 0.25 (µM)) was 91.3333%. The “% inhibition, mean” value (CHIKV nsP2^pro [2]; HST 0.25 (µM)) was 8.667%, the “% activity, mean” value (CHIKV nsP2^pro [2]; HST 0.5 (µM)) was 80.6667% and the “% inhibition, mean” value (CHIKV nsP2^pro [2]; HST 0.5 (µM)) was 19.3333%. For the same molecule, the inhibition at 0.5 µM (CHIKV nsP2^pro [2]; HST 0.5 (µM), replicates A-C) was 17%, the “% activity, mean” value (CHIKV nsP2^pro [2]; HST 1 (µM)) was 65.3333% and the “% inhibition, mean” value (CHIKV nsP2^pro [2]; HST 1 (µM)) was 34.6667%. For the same molecule, the inhibition at 2.5 µM (CHIKV nsP2^pro [2]; HST 2.5 (µM), replicates A-C) was 51%, the “% activity, mean” value (CHIKV nsP2^pro [2]; HST 5 (µM)) was 33.3333% and the “% inhibition, mean” value (CHIKV nsP2^pro [2]; HST 5 (µM)) was 66.6667%. The “% activity, mean” value (CHIKV nsP2^pro [2]; HST 10 (µM)) was 20.3333%, the “% inhibition, mean” value (CHIKV nsP2^pro [2]; HST 10 (µM)) was 79.6667% and the “% activity, mean” value (CHIKV nsP2^pro [2]; HST 15 (µM)) was 11.6667%. The “% inhibition, mean” value (CHIKV nsP2^pro [2]; HST 15 (µM)) was 88.3333%, the inhibition at 15 µM (CHIKV nsP2^pro [2]; HST 15 (µM), replicates A-C) was 86% and the “% activity, mean” value (CHIKV nsP2^pro [2]; HST 20 (µM)) was 5.333%. The “% inhibition, mean” value (CHIKV nsP2^pro [2]; HST 20 (µM)) was 94.6667%, the “% activity, mean” value (CHIKV nsP2^pro [2]; HST 25 (µM)) was 2.333% and the “% inhibition, mean” value (CHIKV nsP2^pro [2]; HST 25 (µM)) was 97.6667%. The inhibition at 25 µM (CHIKV nsP2^pro [2]; HST 25 (µM), replicates A-C) was 96%, the IC50 (CHIKV nsP2^pro [2]; IC50, 1 µM protease, 3 µM substrate, mean ± SD, n=3) was 2500 ± 400 nM and the IC50 (CHIKV nsP2^pro [2]; IC50, single replicate, HST, single replicates A, B, C) was 2.95 µM (2×) and 2.4 µM (2×) and 2.09 µM (2×). For the same molecule, the IC50 (CHIKV nsP2^pro [2]; IC50 mean, HST, mean of triplicate) was 2480 nM, the Inhibition mode (CHIKV nsP2^pro [2]; Lineweaver-Burk plot) was “noncompetitive” and the IC50 (CHIKV nsP2^pro [2]; Log conc nM (IC50 determination triplicate), HST, single replicates A, B, C) was 2950 nM and 2400 nM and 2090 nM. For the same molecule, the remaining activity at 0.25 µM (CHIKV nsP2^pro [2]; read-out: % activity, HST 0.25 (µM), replicates A-C) was 95%, the remaining activity at 0.5 µM (CHIKV nsP2^pro [2]; read-out: % activity, HST 0.5 (µM), replicates A-C) was 83% and the remaining activity at 1 µM (CHIKV nsP2^pro [2]; read-out: % activity, HST 1 (µM), replicates A-C) was 69%. For the same molecule, the remaining activity at 2.5 µM (CHIKV nsP2^pro [2]; read-out: % activity, HST 2.5 (µM), replicates A-C) was 49%, the remaining activity at 5 µM (CHIKV nsP2^pro [2]; read-out: % activity, HST 5 (µM), replicates A-C) was 33% and the remaining activity at 10 µM (CHIKV nsP2^pro [2]; read-out: % activity, HST 10 (µM), replicates A-C) was 22%. The remaining activity at 15 µM (CHIKV nsP2^pro [2]; read-out: % activity, HST 15 (µM), replicates A-C) was 14%, the remaining activity at 20 µM (CHIKV nsP2^pro [2]; read-out: % activity, HST 20 (µM), replicates A-C) was 7% and the remaining activity at 30 µM (CHIKV nsP2^pro [2]; read-out: % activity, HST 30 (µM), replicates A-C) was 0%. For the same molecule, the inhibition at 20 µM (CHIKV nsP2^pro [2]; read-out: Inhibition of protease activity, preliminary inhibition test, compound 20 µM) was ~90%, the AUC inf. [3] was 3.49 ± 0.37 µM·h and the AUC last [3] was 3.01 ± 0.29 µM·h. The Cl systemic clearance [3] was 318.2 ± 33.2 mL/min/kg, the “MRT mean residence time” value [3] was 3.60 ± 0.21 h and the T1/2 elimination half-life [3] was 5.32 ± 0.62 h. For the same molecule, the “Vd volume of distribution” value [3] was 145.60 ± 8.84 L/kg, the C0 ([3]; read-out: Co initial concentration) was 7.35 ± 1.71 µM and the “Intracellular replication of CHIKV” value (CHIKV [4]) was “inhibit”. For the same molecule, the “Antiviral activity, plaque reduction” value (CHIKV [5]) was “no antiviral activities”, the “Potential maximal tolerated dose” value [6] was “Citrus flavonoids are extremely safe and without side effects also up to high concentrations of 100 mg/kg to 500 mg/kg” and the Kd (CHIKV nsP2^pro [7]) was 31600 ± 2500 nM. For the same molecule, the “Melting temperature (Tm) of protease-ligand complex” value (CHIKV nsP2^pro [8]) was 55 °C, the ΔTm (CHIKV nsP2^pro [8]) was ~8 °C and the “Melting temperature (Tm) of protease-ligand complex” value (ZIKV NS2B/NS3^pro [9]) was 49 °C. The ΔTm (ZIKV NS2B/NS3^pro [9]) was 6 °C.
